Laboratory results taken from ChEMBL document CHEMBL1909046, “DrugMatrix in vitro pharmacology data”.

Key:
Leukotriene C4 synthase = biological target: T1, Leukotriene C4 synthase (Cavia porcellus, UniProt A6XA80); format: tissue-based, Lung;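 further: enzyme inhibition assay of leukotriene C4 synthase, using LTA4 as the substrate; in other assays of this panel Not Active means under 50% inhibition at 10 µM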
T1 sequence (A6XA80 whole entry): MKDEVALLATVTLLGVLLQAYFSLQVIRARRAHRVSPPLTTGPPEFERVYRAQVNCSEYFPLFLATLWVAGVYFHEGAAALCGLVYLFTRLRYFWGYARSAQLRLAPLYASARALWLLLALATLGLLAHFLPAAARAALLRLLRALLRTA

[1] = DRUGMATRIX: Tumor Necrosis Factor (TNF), Non-Selective radioligand binding (ligand: [125I] TNF-alpha); format: cell membranes, Membrane; conditions: u-937; Not Active = under 50% inhibition at 10 µM
[2] = biological target: 5-hydroxytryptamine receptor 2B (Homo sapiens, UniProt P41595); format: cell membranes, CHO-K1, Membrane; further: in other assays of this panel Not Active means under 50% inhibition at 10 µM
[3] = biological target: Platelet-activating factor receptor (Homo sapiens, UniProt P25105); format: tissue-based; further: in other assays of this panel Not Active means under 50% inhibition at 10 µM
[4] = biological target: Sodium-dependent noradrenaline transporter (Homo sapiens, UniProt P23975); experiment: DRUGMATRIX: Norepinephrine Transporter radioligand binding (ligand: [125I] RTI-55); format: cell membranes, MDCK, Membrane; conditions: mdck; Not Active = under 50% inhibition at 10 µM
Cytochrome P450 2A6 = biological target: T2, Cytochrome P450 2A6 (Homo sapiens, UniProt P11509); conditions: bti-tn-5b1-4; further: in other assays of this panel Not Active means under 50% inhibition at 10 µM
T2 sequence (P11509 whole entry): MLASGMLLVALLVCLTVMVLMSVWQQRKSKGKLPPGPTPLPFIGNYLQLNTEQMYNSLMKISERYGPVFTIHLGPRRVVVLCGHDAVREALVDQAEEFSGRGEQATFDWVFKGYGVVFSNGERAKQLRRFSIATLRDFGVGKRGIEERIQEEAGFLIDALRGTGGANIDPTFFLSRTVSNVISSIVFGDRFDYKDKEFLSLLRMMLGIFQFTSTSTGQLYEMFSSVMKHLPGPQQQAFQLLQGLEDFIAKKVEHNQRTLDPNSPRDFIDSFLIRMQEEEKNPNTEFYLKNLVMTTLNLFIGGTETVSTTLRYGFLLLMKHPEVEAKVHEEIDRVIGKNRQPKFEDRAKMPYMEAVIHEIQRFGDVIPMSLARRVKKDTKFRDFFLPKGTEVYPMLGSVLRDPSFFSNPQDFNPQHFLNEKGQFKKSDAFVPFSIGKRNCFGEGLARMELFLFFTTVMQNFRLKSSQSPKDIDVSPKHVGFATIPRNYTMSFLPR

[5] = biological target: Sodium-dependent dopamine transporter (Homo sapiens, UniProt Q01959); experiment: DRUGMATRIX: Dopamine Transporter radioligand binding (ligand: [125I] RTI-55); format: cell membranes, CHO-K1, Membrane; conditions: cho-k1; Not Active = under 50% inhibition at 10 µM
Sodium-dependent dopamine transporter, sequence (Q01959 whole entry): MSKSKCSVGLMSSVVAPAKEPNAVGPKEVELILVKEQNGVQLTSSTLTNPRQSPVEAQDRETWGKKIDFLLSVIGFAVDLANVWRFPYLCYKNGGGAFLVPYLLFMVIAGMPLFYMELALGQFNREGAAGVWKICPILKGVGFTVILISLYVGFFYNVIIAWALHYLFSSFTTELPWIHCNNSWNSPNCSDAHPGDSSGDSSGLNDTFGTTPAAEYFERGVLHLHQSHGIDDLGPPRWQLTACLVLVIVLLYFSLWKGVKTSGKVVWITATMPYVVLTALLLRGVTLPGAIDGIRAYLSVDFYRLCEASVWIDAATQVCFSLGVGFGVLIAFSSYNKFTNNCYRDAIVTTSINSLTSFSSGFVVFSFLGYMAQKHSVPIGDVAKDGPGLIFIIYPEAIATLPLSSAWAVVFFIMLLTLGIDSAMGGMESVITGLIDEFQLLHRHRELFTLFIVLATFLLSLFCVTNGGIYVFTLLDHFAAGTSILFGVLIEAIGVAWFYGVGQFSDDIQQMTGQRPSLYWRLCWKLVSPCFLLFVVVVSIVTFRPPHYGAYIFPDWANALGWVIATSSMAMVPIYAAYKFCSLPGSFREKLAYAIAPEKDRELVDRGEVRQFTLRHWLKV

Sodium-dependent noradrenaline transporter, sequence (P23975 whole entry): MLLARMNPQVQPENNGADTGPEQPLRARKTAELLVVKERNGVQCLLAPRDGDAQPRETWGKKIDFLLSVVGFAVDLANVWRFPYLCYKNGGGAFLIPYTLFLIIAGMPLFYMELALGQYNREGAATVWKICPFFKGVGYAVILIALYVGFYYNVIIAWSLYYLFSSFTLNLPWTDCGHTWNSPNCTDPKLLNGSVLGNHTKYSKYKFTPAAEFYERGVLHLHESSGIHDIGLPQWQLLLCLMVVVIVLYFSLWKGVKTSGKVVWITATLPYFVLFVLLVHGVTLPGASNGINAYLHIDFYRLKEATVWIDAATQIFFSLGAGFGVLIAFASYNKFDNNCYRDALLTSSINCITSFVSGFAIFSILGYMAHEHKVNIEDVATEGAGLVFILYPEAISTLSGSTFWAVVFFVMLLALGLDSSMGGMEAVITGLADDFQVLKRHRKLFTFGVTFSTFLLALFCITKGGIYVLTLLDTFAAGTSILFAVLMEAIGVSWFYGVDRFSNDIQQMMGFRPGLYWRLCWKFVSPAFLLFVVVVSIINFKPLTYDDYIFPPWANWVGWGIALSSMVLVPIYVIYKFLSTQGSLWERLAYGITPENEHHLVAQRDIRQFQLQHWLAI
Platelet-activating factor receptor, sequence (P25105 whole entry): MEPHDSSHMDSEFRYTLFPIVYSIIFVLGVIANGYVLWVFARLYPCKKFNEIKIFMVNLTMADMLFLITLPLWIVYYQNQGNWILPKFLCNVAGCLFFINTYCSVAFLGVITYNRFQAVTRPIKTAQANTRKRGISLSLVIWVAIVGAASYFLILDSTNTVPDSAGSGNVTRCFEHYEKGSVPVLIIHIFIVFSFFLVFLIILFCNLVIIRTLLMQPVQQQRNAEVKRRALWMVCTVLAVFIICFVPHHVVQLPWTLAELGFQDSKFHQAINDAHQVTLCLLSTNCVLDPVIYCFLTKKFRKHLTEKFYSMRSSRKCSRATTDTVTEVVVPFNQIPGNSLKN
5-hydroxytryptamine receptor 2B, sequence (P41595 whole entry): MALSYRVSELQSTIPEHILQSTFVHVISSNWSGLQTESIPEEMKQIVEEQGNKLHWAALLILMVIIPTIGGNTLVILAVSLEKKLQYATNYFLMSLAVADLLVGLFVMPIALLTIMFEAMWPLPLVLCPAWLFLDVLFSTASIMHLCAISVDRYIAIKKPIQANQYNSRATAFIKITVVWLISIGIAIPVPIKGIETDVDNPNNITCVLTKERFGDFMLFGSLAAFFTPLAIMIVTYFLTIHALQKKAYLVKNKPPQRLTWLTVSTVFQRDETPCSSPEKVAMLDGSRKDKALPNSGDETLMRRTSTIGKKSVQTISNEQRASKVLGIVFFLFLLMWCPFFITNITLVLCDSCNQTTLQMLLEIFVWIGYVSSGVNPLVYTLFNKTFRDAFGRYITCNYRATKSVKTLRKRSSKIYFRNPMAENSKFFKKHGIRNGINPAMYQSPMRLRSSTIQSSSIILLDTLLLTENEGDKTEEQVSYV

Molecule	IC50 (Leukotriene C4 synthase)	IC50 [1]	Ki [1]	IC50 ([2]; cho-k1)	IC50 [3]	IC50 [4]	IC50 (Cytochrome P450 2A6)	Ki (Cytochrome P450 2A6)	IC50 [5]	Ki (Leukotriene C4 synthase)	Ki ([2]; cho-k1)	Ki [3]	Ki [4]	Ki [5]	IC50 ([2]; read-out: IC50)	Ki ([2]; read-out: Ki)
C[C@@H]1O[C@@H](O[C@@H]2C=C3CC[C@@H]4[C@H](CC[C@]5(C)[C@@H](c6ccc(=O)oc6)CC[C@]45O)[C@@]3(C)CC2)[C@H](O)[C@H](O)[C@H]1O [PROSCILLARIDIN]	Not Active	Not Active	Not Active	Not Active	Not Active	Not Active	Not Active	Not Active	Not Active	–	–	–	–	–	–	–
CN(C)[C@@H]1C(O)=C(C(N)=O)C(=O)[C@@]2(O)C(O)=C3C(=O)c4c(O)ccc(Cl)c4[C@@](C)(O)[C@H]3C[C@@H]12 [CHLORTETRACYCLINE]	Not Active	Not Active	Not Active	Not Active	Not Active	Not Active	Not Active	Not Active	Not Active	–	–	–	–	–	–	–
Nc1ccn([C@@H]2O[C@H](CO)[C@@H](O)[C@@H]2O)c(=O)n1 [CYTARABINE]	Not Active	Not Active	Not Active	Not Active	Not Active	Not Active	Not Active	Not Active	Not Active	–	–	–	–	–	–	–
NYSTATIN	Not Active	Not Active	Not Active	Not Active	Not Active	Not Active	Not Active	Not Active	Not Active	Not Active	Not Active	Not Active	Not Active	Not Active	–	–
Cc1cc2c(OCC(CNC(C)(C)C)OC(=O)c3ccccc3)cccc2[nH]1 (stereo not drawn) [BOPINDOLOL]	Not Active	Not Active	Not Active	–	Not Active	Not Active	Not Active	Not Active	Not Active	–	–	–	–	–	1.52 µM	0.969 µM
C[C@@H](CO)NC(=O)[C@@H]1C=C2c3cccc4[nH]cc(c34)C[C@H]2N(C)C1 [ERGONOVINE]	Not Active	Not Active	Not Active	–	Not Active	Not Active	Not Active	Not Active	Not Active	–	–	–	–	–	0.00414 µM	0.00263 µM
CC(=O)O[C@H]1C(=O)[C@@]2(C)[C@H]([C@H](OC(=O)c3ccccc3)[C@]3(O)C[C@H](OC(=O)[C@H](O)[C@@H](NC(=O)c4ccccc4)c4ccccc4)C(C)=C1C3(C)C)[C@]1(OC(C)=O)CO[C@@H]1C[C@@H]2O [PACLITAXEL]	Not Active	Not Active	Not Active	Not Active	Not Active	Not Active	Not Active	Not Active	Not Active	–	–	–	–	–	–	–
Nc1ccn([C@@H]2O[C@H](CO)[C@@H](O)C2(F)F)c(=O)n1 [GEMCITABINE]	Not Active	Not Active	Not Active	Not Active	Not Active	Not Active	Not Active	Not Active	Not Active	–	–	–	–	–	–	–
CCC1(CCC(C)C)C(=O)NC(=O)NC1=O [AMOBARBITAL]	Not Active	Not Active	Not Active	Not Active	Not Active	Not Active	Not Active	Not Active	Not Active	–	–	–	–	–	–	–
O=C(O)c1cccnc1Nc1cccc(C(F)(F)F)c1 [NIFLUMIC ACID]	Not Active	Not Active	Not Active	Not Active	Not Active	Not Active	Not Active	Not Active	Not Active	–	–	–	–	–	–	–
Cn1c(=O)c2[nH]cnc2n(C)c1=O.Cn1c(=O)c2[nH]cnc2n(C)c1=O.NCCN [AMINOPHYLLINE]	Not Active	Not Active	Not Active	Not Active	Not Active	Not Active	Not Active	Not Active	Not Active	–	–	–	–	–	–	–
GENTAMICIN	Not Active	Not Active	Not Active	Not Active	Not Active	Not Active	Not Active	Not Active	Not Active	Not Active	Not Active	Not Active	Not Active	Not Active	–	–
C=CCc1ccc(O)c(OC)c1 [EUGENOL]	Not Active	Not Active	Not Active	Not Active	Not Active	Not Active	Not Active	Not Active	Not Active	–	–	–	–	–	–	–
COc1ccc2[nH]cc(CCNC(C)=O)c2c1 [MELATONIN]	Not Active	Not Active	Not Active	Not Active	Not Active	Not Active	Not Active	Not Active	Not Active	–	–	–	–	–	–	–
N=C(N)NC(=O)Cc1c(Cl)cccc1Cl [GUANFACINE]	Not Active	Not Active	Not Active	–	Not Active	Not Active	Not Active	Not Active	Not Active	–	–	–	–	–	2.1 µM	1.34 µM
O=C(N/N=C/c1ccc([N+](=O)[O-])o1)c1cc([N+](=O)[O-])cc([N+](=O)[O-])c1O [NIFURSOL]	Not Active	Not Active	Not Active	Not Active	Not Active	Not Active	Not Active	Not Active	Not Active	–	–	–	–	–	–	–
COc1cc2nc(N3CCN(C(=O)c4ccco4)CC3)nc(N)c2cc1OC [PRAZOSIN]	Not Active	Not Active	Not Active	–	Not Active	Not Active	Not Active	Not Active	Not Active	–	–	–	–	–	4.12 µM	2.62 µM
CC(C)NNC(=O)c1ccncc1 [IPRONIAZID]	Not Active	Not Active	Not Active	Not Active	Not Active	Not Active	Not Active	Not Active	Not Active	–	–	–	–	–	–	–
CC(C(=O)O)c1cccc(Oc2ccccc2)c1 (stereo not drawn) [FENOPROFEN]	Not Active	Not Active	Not Active	Not Active	Not Active	Not Active	Not Active	Not Active	Not Active	–	–	–	–	–	–	–
O=C(O)CCNC(=O)c1ccccc1 [BETAMIPRON]	Not Active	Not Active	Not Active	Not Active	Not Active	Not Active	Not Active	Not Active	Not Active	–	–	–	–	–	–	–
C#C[C@]1(OC(C)=O)CC[C@H]2[C@@H]3CCC4=C[C@@H](OC(C)=O)CC[C@@H]4[C@H]3CC[C@@]21C [ETHYNODIOL DIACETATE]	Not Active	Not Active	Not Active	Not Active	Not Active	Not Active	Not Active	Not Active	Not Active	–	–	–	–	–	–	–
CN1[C@@H]2CC[C@H]1C[C@@H](OC(=O)C(CO)c1ccccc1)C2 (stereo partly drawn) [ATROPINE]	Not Active	Not Active	Not Active	Not Active	Not Active	Not Active	Not Active	Not Active	Not Active	–	–	–	–	–	–	–
Oc1cccc(O)c1O [PYROGALLOL]	Not Active	Not Active	Not Active	Not Active	Not Active	Not Active	Not Active	Not Active	Not Active	–	–	–	–	–	–	–
O=C/C=C/c1ccccc1	Not Active	Not Active	Not Active	Not Active	Not Active	Not Active	Not Active	Not Active	Not Active	–	–	–	–	–	–	–
CN/C(=N\CCSCc1nc[nH]c1C)NC#N [CIMETIDINE]	Not Active	Not Active	Not Active	Not Active	Not Active	Not Active	Not Active	Not Active	Not Active	–	–	–	–	–	–	–
C[n+]1ccc(-c2cc[n+](C)cc2)cc1.[Cl-].[Cl-] [PARAQUAT DICHLORIDE]	Not Active	Not Active	Not Active	Not Active	Not Active	Not Active	Not Active	Not Active	Not Active	–	–	–	–	–	–	–
